According to patent US9393221B2, “Methods and compounds for reducing intracellular lipid storage” (THE GENERAL HOSPITAL CORPORATION, priority 2011, dated 2016):
Counter-ions that a name gives are not always drawn.

system: ATGL-KO iPSCs; assay: High throughput iPSC chemical screening, Oil Red O (ORO) lipid accumulation; type: cell-based, mouse; settings: glycolytic switch compounds; on Z-score: test concentration or dose not given here

Structure (SMILES) | Rank in normalized ORO score from screen
OC(CCN1CCCCC1)(c1ccccc1)C1CC2C=CC1C2 (centres unmarked) [Biperiden hydrochloride] | 135
CC(=O)Oc1ccc(C(c2ccc(OC(C)=O)cc2)c2ccccn2)cc1 [Bisacodyl] | 791
CCCCOC(=O)c1ccc(O)cc1 [Butylparaben] | 23

same assay, conditions: normalized ORO level vs DMSO-treated cells; compound present during 7 days differentiation, 96-well; negative = decrease in lipid accumulation

Structure (SMILES) | Z-score
C=C(C)[C@@H]1CC[C@]2(CO)CC[C@]3(C)[C@H](CC[C@@H]4[C@@]5(C)CC[C@H](O)C(C)(C)[C@@H]5CC[C@]43C)[C@@H]12 [Betulin] | −1.4148
C=C(C)[C@@H]1CC[C@]2(C(=O)O)CC[C@]3(C)[C@H](CC[C@@H]4[C@@]5(C)CC[C@H](O)C(C)(C)[C@@H]5CC[C@]43C)[C@@H]12 [Betulinic acid] | 0.4119
CC(C)(Oc1ccc(CCNC(=O)c2ccc(Cl)cc2)cc1)C(=O)O [Bezafibrate] | −0.2571
CN1CCc2cc3c(cc2[C@H]1[C@@H]1OC(=O)c2c1ccc1c2OCO1)OCO3 [Bicuculline (+)] | −0.5556
O=C(O)CCCC[C@@H]1SC[C@@H]2NC(=O)N[C@@H]21 [Biotin] | 0.1016
OC(CCN1CCCCC1)(c1ccccc1)C1CC2C=CC1C2 (centres unmarked) [Biperiden hydrochloride] | −1.1752
CC(=O)Oc1ccc(C(c2ccc(OC(C)=O)cc2)c2ccccn2)cc1 [Bisacodyl] | 0.477
CC(C)NCC(O)COc1ccc(COCCOC(C)C)cc1 (centres unmarked) [Bisoprolol fumarate] | 0.03425
COc1cc2c(cc1O)C[C@H]1c3c(cc(O)c(OC)c3-2)CCN1C [Boldine] | −0.6389
CC[N+](C)(C)Cc1ccccc1Br [Bretylium tosylate] | 1.9055
CCN[C@H]1CN(CCCOC)S(=O)(=O)c2sc(S(N)(=O)=O)cc21 [Brinzolamide] | −0.419
CCN(CC)CCNC(=O)c1cc(Br)c(N)cc1OC [Bromopride] | 0.9486
O=C(CCCN1CCC(O)(c2ccc(Br)cc2)CC1)c1ccc(F)cc1 [Bromperidol] | −0.6428
CN(C)CCC(c1ccc(Br)cc1)c1ccccn1 (centres unmarked) [Brompheniramine maleate] | 1.885
CCCC(=O)Nc1ncnc2c1ncn2[C@@H]1O[C@@H]2COP(=O)(O)O[C@H]2[C@H]1OC(=O)CCC [Bucladesine sodium salt] | −0.9927
CCCC1O[C@@H]2C[C@H]3[C@@H]4CCC5=CC(=O)C=C[C@]5(C)[C@H]4[C@@H](O)C[C@]3(C)[C@]2(C(=O)CO)O1 (some centres unmarked) [Budesonide] | 19.1411
CCCCOc1ccc(CC(=O)NO)cc1 [Bufexamac] | 0.678
COc1cc(OC)c(C(=O)CCCN2CCCC2)c(OC)c1 [Buflomedil hydrochloride] | −0.0451
CCCCNc1cc(C(=O)O)cc(S(N)(=O)=O)c1Oc1ccccc1 [Bumetanide] | −1.3983
CCCCN1CCCCC1C(=O)Nc1c(C)cccc1C (centres unmarked) [Bupivacaine hydrochloride] | 0.0187
CC(NC(C)(C)C)C(=O)c1cccc(Cl)c1 (centres unmarked) [Bupropion hydrochloride] | 0.7193
O=C1CC2(CCCC2)CC(=O)N1CCCCN1CCN(c2ncccn2)CC1 [Buspirone hydrochloride] | −0.0845
CCCCN(CCCC)CCCOC(=O)c1ccc(N)cc1 [Butacaine] | −0.9284
CCCCOC(=O)c1ccc(N)cc1 [Butamben] | 0.2903

Structure (SMILES) | Z-score
Clc1ccc(CCC(Cn2ccnc2)Sc2c(Cl)cccc2Cl)cc1 (centres unmarked) [Butoconazole nitrate] | −0.4077
CCCCOC(=O)c1ccc(O)cc1 [Butylparaben] | −1.7629
O=C(O)/C=C/c1ccc(O)c(O)c1 [Caffeic acid] | −1.7446
C=C1CC[C@H](O)C/C1=C/C=C1\CCC[C@]2(C)[C@@H]([C@H](C)/C=C/[C@H](C)C(C)C)CC[C@@H]12 [Calciferol] | 0.2582
CN1CC[C@]23c4ccccc4N[C@H]1[C@]21CCN(C)[C@H]3Nc2ccccc21 [Calycanthine] | −0.8381
CC[C@@]1(O)C(=O)OCc2c1cc1n(c2=O)Cc2cc3ccccc3nc2-1 [Camptothecine (S,+)] | 21.8871
NC(N)=NOCC[C@H](N)C(=O)O.O.O=S(=O)(O)O [Canavanine sulfate monohydrate (L,+)] | −0.5687
C[C@]12CCC(=O)C=C1C=C[C@@H]1[C@@H]2CC[C@@]2(C)[C@H]1CC[C@@]2(O)CCC(=O)O [Canrenoic acid potassium salt] | −0.274
C[C@@]12C(=O)OC(=O)[C@]1(C)[C@H]1CC[C@@H]2O1 [Cantharidin] | 18.9862
COc1cc(CNC(=O)CCCC/C=C/C(C)C)ccc1O [Capsaicin] | 0.3383
C[C@H](CS)C(=O)N1CCC[C@H]1C(=O)O [Captopril] | −0.2654
C[N+](C)(C)CCOC(N)=O [Carbachol] | 0.7384
NC(=O)N1c2ccccc2C=Cc2ccccc21 [Carbamazepine] | 0.2892
CC1(C)[C@@H](OC(=O)CCC(=O)O)CC[C@]2(C)[C@H]3C(=O)C=C4[C@@H]5C[C@@](C)(C(=O)O)CC[C@]5(C)CC[C@@]4(C)[C@]3(C)CC[C@@H]12 [Carbenoxolone disodium salt] | −1.2656
CCN(CC)CCOCCOC(=O)C1(c2ccccc2)CCCC1 [Carbetapentane citrate] | 1.581
CCOC(=O)n1ccn(C)c1=S [Carbimazole] | −0.836
NCCC(=O)NCCc1c[nH]cn1 [Carcinine] | 0.6838
CCCC(C)(COC(N)=O)COC(=O)NC(C)C (centres unmarked) [Carisoprodol] | 0.5591
CC(C)(C)NCC(O)COc1cccc2c1CCC(=O)N2 (centres unmarked) [Carteolol hydrochloride] | −0.6876
N[C@@H](C(=O)N[C@@H]1C(=O)N2C(C(=O)O)=C(Cl)CS[C@H]12)c1ccccc1 [Cefaclor] | −0.5619
CC1=C(C(=O)O)N2C(=O)[C@@H](NC(=O)[C@H](N)c3ccc(O)cc3)[C@H]2SC1 [Cefadroxil] | −0.5419
NC(=O)c1cc[n+](CC2=C(C(=O)[O-])N3C(=O)[C@@H](NC(=O)Cc4cccs4)[C@H]3SC2)cc1 [Cefalonium] | −0.8363
Cn1nnnc1SCC1=C(C(=O)O)N2C(=O)[C@@H](NC(=O)[C@H](O)c3ccccc3)[C@H]2SC1 [Cefamandole sodium salt] | −0.5703
Cc1nnc(SCC2=C(C(=O)O)N3C(=O)[C@@H](NC(=O)Cn4cnnn4)[C@H]3SC2)s1 [Cefazolin sodium salt] | −0.8698

Structure (SMILES) | Z-score
CO/N=C(\C(=O)N[C@@H]1C(=O)N2C(C(=O)O)=C(C[N+]3(C)CCCC3)CS[C@H]12)c1csc(N)n1 [Cefepime hydrochloride] | 1.172
C=CC1=C(C(=O)O)N2C(=O)[C@@H](NC(=O)/C(=N\OCC(=O)O)c3csc(N)n3)[C@H]2SC1 [Cefixime] | 1.521
CO[C@@]1(NC(=O)CSCC#N)C(=O)N2C(C(=O)O)=C(CSc3nnnn3C)CS[C@@H]21 [Cefmetazole sodium salt] | −0.8537
CCN1CCN(C(=O)N[C@@H](C(=O)N[C@@H]2C(=O)N3C(C(=O)O)=C(CSc4nnnn4C)CS[C@H]23)c2ccc(O)cc2)C(=O)C1=O [Cefoperazone dihydrate] | 0.4847
NCc1ccccc1CC(=O)N[C@@H]1C(=O)N2C(C(=O)O)=C(CSc3nnnn3CC(=O)O)CS[C@H]12 [Ceforanide] | 1.929
CO/N=C(\C(=O)N[C@@H]1C(=O)N2C(C(=O)O)=C(COC(C)=O)CS[C@H]12)c1csc(N)n1 [Cefotaxime sodium salt] | −0.8289
CO[C@@]1(NC(=O)C2SC(=C(C(N)=O)C(=O)O)S2)C(=O)N2C(C(=O)O)=C(CSc3nnnn3C)CS[C@@H]21 (some centres unmarked) [Cefotetan] | 2.584
CN(C)CCn1nnnc1SCC1=C(C(=O)O)N2C(=O)[C@@H](NC(=O)Cc3csc(N)n3)[C@H]2SC1 [Cefotiam hydrochloride] | −0.8453
CO[C@@]1(NC(=O)Cc2cccs2)C(=O)N2C(C(=O)O)=C(COC(N)=O)CS[C@@H]21 [Cefoxitin sodium salt] | −1.629
NC(=O)c1cc[n+](CC2=C(C(=O)O)N3C(=O)[C@@H](NC(=O)[C@@H](c4ccccc4)S(=O)(=O)[O-])[C@H]3SC2)cc1 [Cefsulodin sodium salt] | −1.1155
CC(C)(O/N=C(\C(=O)N[C@@H]1C(=O)N2C(C(=O)[O-])=C(C[n+]3ccccc3)CS[C@H]12)c1csc(N)n1)C(=O)O [Ceftazidime pentahydrate] | 0.00611
CO/N=C(\C(=O)N[C@@H]1C(=O)N2C(C(=O)O)=C(COC(N)=O)CS[C@H]12)c1ccco1 [Cefuroxime sodium salt] | 0.8177
CC[C@H]1CN2CCc3cc(OC)c(OC)cc3[C@@H]2C[C@@H]1C[C@H]1NCCc2cc(O)c(OC)cc21.Cl.Cl.O.O.O.O.O.O.O [Cephaeline dihydrochloride heptahydrate] | 26.5614
CC1=C(C(=O)O)N2C(=O)[C@@H](NC(=O)[C@H](N)c3ccccc3)[C@H]2SC1 [Cephalexin monohydrate] | −1.1486
CC(=O)OCC1=C(C(=O)O)N2C(=O)[C@@H](N)[C@H]2SC1 [Cephalosporanic acid, 7-amino] | 0.3224
CC(=O)OCC1=C(C(=O)O)N2C(=O)[C@@H](NC(=O)Cc3cccs3)[C@H]2SC1 [Cephalothin sodium salt] | 0.8566
O=C(O)COCCN1CCN(C(c2ccccc2)c2ccc(Cl)cc2)CC1 (centres unmarked) [Cetirizine dihydrochloride] | −0.3764
CN1Cc2c(ccc3c2OCO3)C2C(O)Cc3cc4c(cc3C21)OCO4 (stereo not drawn) [Chelidonine (+)] | 16.9912
C[C@H](CCC(=O)O)[C@H]1CC[C@H]2[C@@H]3[C@H](O)C[C@@H]4C[C@H](O)CC[C@]4(C)[C@H]3CC[C@]12C [Chenodiol] | −1.6767
COc1cc(-c2ccc(N=Nc3ccc4c(S(=O)(=O)[O-])cc(S(=O)(=O)[O-])c(N)c4c3O)c(OC)c2)ccc1N=Nc1ccc2c(S(=O)(=O)[O-])cc(S(=O)(=O)[O-])c(N)c2c1O.[Na+].[Na+].[Na+].[Na+] [Chicago sky blue 6B] | 0.6958
O=C(O)CCCc1ccc(N(CCCl)CCCl)cc1 [Chlorambucil] | −0.8818
O=C(N[C@H](CO)[C@H](O)c1ccc([N+](=O)[O-])cc1)C(Cl)Cl [Chloramphenicol] | 1.318
[H]/N=C(\N/C(=N/[H])NCCCCCCNC(=N)NC(=N)Nc1ccc(Cl)cc1)Nc1ccc(Cl)cc1 [Chlorhexidine] | 24.4911
